Series [1] has as its system treated animals. The settings on record: cited from earlier work.
The target of series [2] is T1, human MCH-R1 (Homo sapiens, UniProt Q99705).
T1 construct: expressed in transfected cells
The experiment in a line: MCH-induced cytosolic Ca2+ ion mobilization, antagonist effect. The settings on record: antagonism of MCH-induced cytosolic Ca2+ mobilization; read-out: Ki (functionality, antagonism at MCH-R1). Type of series: cell-based. On the procedure:
The functional assay was run onto cells expressing the hMCH-R1 receptor, as described in Wang et al.. In brief, the cells are suspended in DMEM buffer (Invitrogen), then distributed in microplates at a density of 4.104 cells/well. The fluorescent probe (Fluo4 Direct, Invitrogen) mixed with probenecid in Hanks’ Balanced Salt solution (HBSS) (Invitrogen) complemented with 20 mM HEPES (Invitrogen) (pH 7.4) is then added into each well and equilibrated with the cells for 60 min at 37 °C, then 15 min at 22 °C. Then, the assay plates are positioned in a microplate reader (CellLux, PerkinElmer) which is used for the addition of the test compound, reference agonist or HBSS buffer (basal control), and the measurements of changes in fluorescence intensity, which varies proportionally to the free cytosolic Ca^2+ ion concentration. For stimulated control measurements, MCH at 300 nM is added in separate assay wells. The results are expressed as a percentage of the control response to 300 nM MCH. The standard reference agonist is MCH, which is tested in each experiment at several concentrations to generate a concentration-response curve from which its EC50 value is calculated. For the antagonist effect, the results are expressed as a percentage inhibition of the control response to 30 nM MCH, which was added to all tested wells and controls 5 min after the candidate products.
(A change in cytosolic calcium serves as a functional read-out for many receptors and channels.)

Series [3] has as its target T1, human MCH-R1. Kind of series: Binding displacement of [125I]-[Phe13,Tyr19]-MCH at membranes expressing human MCH-R1. As to the method:
Stable cell lines were obligatory for all receptor programs. We cloned the human receptor and established the cell line as previously described. In brief, HEK293 (HEK) cells were grown in Dulbecco’s Modified Eagle medium (DMEM) supplemented with 10% fetal calf serum, 2 mM glutamine, 100 IU/mL penicillin and […] streptomycin. They were seeded at 5 × 10^6 cells in T75 cm^2 culture flasks. One day later, they were transfected with […] of the pcDNA3.1 (Invitrogen, Groningen, The Netherlands) containing the human MCH-R1 using lipofectamine (Life Technologies, Cergy Pontoise, France), as previously described. One day later, cells were trypsinized, resuspended in a complete DMEM medium containing […] of geneticin and seeded at different dilutions in 96-well plates which were kept for 2 to 3 weeks in a humidified CO2 incubator. At the end of the selection period, isolated clones were picked up, amplified, and further characterized by cyclic AMP experiments. For each cell line, one positive clone was subcloned before being used for all of the cyclic AMP, [^35S]-GTPγS and receptor binding experiments necessary to characterize them. The stable HEK293 cell line expressing the human MCH-R1 was HEK-hMCH-R1.
Membrane preparations were classically made as previously described. In brief, the HEK-hMCH-R cell line was grown to confluency, harvested in PBS buffer containing 2 mM EDTA and centrifuged at 10,000× g for 5 min (4°C). The resulting pellet was suspended in 20 mM Hepes buffer (pH 7.5), containing 5 mM EGTA and homogenized using a Kinematica polytron. The homogenate was then centrifuged (95,000× g, 30 min, 4 °C) and the resulting pellet was suspended in 50 mM HEPES buffer (pH 7.5), containing 10 mM MgCl2 and 2 mM EGTA. Aliquots of membrane preparations were stored at −80 °C until use. Binding has been described in numerous publications and the test was based on Mac Donald et al.’s description. […] Nonspecific binding is determined in the presence of 0.1 μM MCH. […] The filters are dried and then counted for radioactivity in a scintillation counter (Topcount, Packard) using a scintillation cocktail (Microscint 0, Packard). The results are expressed as percentage inhibition of the control radioligand specific binding. The standard reference compound is MCH, which was tested in each experiment at 8 concentrations to obtain a competition curve from which its IC50 is calculated. The high level of assay robustness and reproducibility of each control monitored over several decades (internal data base, Eurofins) and included in every assay ensure results’ reliability even when performed only twice. […]

The nature of series [4]: rat plasma. The conditions noted are these: 37 °C, up to 300 min.
Series [5] in a line: human plasma. The settings on record: 37 °C, up to 300 min.

Where two headings read alike, the source gives them in different places. Where a SMILES comes first, the peptide text is derived from it. Bridges are numbered along the chain shown (N, C = ends). Where no end group is shown, it is not given here. The star is where a group is joined. Benzoyl(4-guanidino) = N=C(N)Nc1ccc(C(=O)*)cc1; Gua = N-terminal guanidino group, N=C(N)*

T1 sequence (Q99705 whole entry): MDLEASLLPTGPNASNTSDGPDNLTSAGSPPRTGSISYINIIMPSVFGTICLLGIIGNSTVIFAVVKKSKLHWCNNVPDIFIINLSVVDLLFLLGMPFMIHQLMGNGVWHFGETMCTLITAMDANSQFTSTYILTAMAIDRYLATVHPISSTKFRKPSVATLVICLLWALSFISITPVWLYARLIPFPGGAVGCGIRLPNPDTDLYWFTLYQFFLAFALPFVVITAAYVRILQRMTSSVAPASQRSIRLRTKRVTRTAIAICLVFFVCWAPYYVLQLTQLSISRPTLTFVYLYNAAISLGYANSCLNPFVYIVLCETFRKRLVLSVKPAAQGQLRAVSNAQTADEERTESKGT

As for `COCC1=C(C(=O)OC)[C@H](c2ccc(F)c(F)c2)N(C(=O)NCCCN2CCC(c3cccc(NC(C)=O)c3)CC2)C(=O)N1` [SNAP-7941], the behavioral concerns result in series [1] is listed as “some behavioral concerns have been reported”. As to `CSCC[C@H](NC(=O)[C@H](C)NC(=O)c1ccc(NC(=N)N)cc1)C(=O)N[C@@H](CC(C)C)C(=O)N[C@@H](CCCNC(=N)N)C(=O)N[C@H](C(=O)N[C@@H](CCCNC(=N)N)C(=O)N1CCC[C@H]1C(=O)N[C@@H](C)C(=O)N[C@@H](Cc1c[nH]c2ccccc12)C(=O)O)C(C)C` [GPS13670] ({Benzoyl(4-guanidino)}-AMLRVRPAW-OH), the inhibition constant Ki in series [2] stood at 0.03 µM. The “affinity at the MCH-R1 receptor (in words)” value in series [3] is “poor binders”. Regarding “GPS11373: S-S bridge: Gua-Cys-Met-Leu-Arg-Val-Arg-Pro-Cys-Trp (Gua-CMLRVRPCW; disulfide 1-8 (inferred))”, the binding affinity constant in series [3] (Table 1, S-S bridge pseudopeptides, 2 × 2 independent duplicates, read-out: Km) stood at 100 nM. For the molecule `CN(C)c1nc(NC2CCC(NCCc3ccc(Br)cc3OC(F)(F)F)CC2)nc2ccccc12` (stereo not shown) [ATC0065], the behavioral concerns result in series [1] was “some behavioral concerns have been reported”.

In the case of “Gua-N3-hAla-Nle-Leu-Arg-βhVal-Arg-Pro-hPra-Trp”, the not cleaved result in series [4] was “not metabolized at all, 100% of the initial dose found at 300 (5 h)”; in series [5] it was “not metabolized at all, 100% of the initial dose found at 300 (5 h)”. On to `COc1cc(-n2cnc3cc(-c4ccc(Cl)cc4)sc3c2=O)ccc1OCCN1CCCC1` [GW803430], for which the behavioral concerns entry in series [1] (in vivo) is recorded as “some behavioral concerns have been reported”.

Turning to pGua-[N3-hAla-MLR-βhVal-RP-hPra]-W-OH, the not cleaved result was “not metabolized at all, 100% of the initial dose found at 300 (5 h)” in series [4] and “not metabolized at all, 100% of the initial dose found at 300 (5 h)” in series [5].

The Ki is a measure of affinity in units of concentration, obtained from inhibition or displacement.

Source of the values: article PMC7957705 (Molecules, 2021).
